{"source": "patent US20100235931A1", "about": "“Novel Neurological Function of mPKCI” (priority 2006, published 2010)", "key": {"mPKCI WT and KO mice": {"system": "mPKCI WT and KO mice", "assay": "Locomotor activity measurement (open field, ambulation and stereotypy)", "type": "in vivo", "procedure": "The generation of PKCI^−/− mice was described previously (Su et al, 2003, supra). PKCI^−/− mice and their wild type littermates were derived by breeding heterozygous […] mice for altered PKCI allele (Hint1) and genotype of the animals was confirmed by PCR of DNA from tail biopsies. Animals were housed 4-6/cage, maintained under standard laboratory condition with food and water provided ad libitum. The male animals were tested between 10-20 weeks of age. Wild type and PKCI^−/− groups were matched for age in all experiments. All studies were conducted with an approved protocol from University of Maryland, School of Pharmacy IACUC.\nMice locomotor activity was monitored during an open field test using “Activity Monitor” chambers (27×27×20.3 cm) associated with the Activity Monitor software (Med Associates Inc St Albans Vt.). Room temperature was set at 23° C.+/−2° C. Horizontal spontaneous locomotion activity, scored as ambulatory counts and stereotypic movements (Sanberg P. R. et al 1987, Pharmacol. Biochem. Behav. 27, 569-72), was recorded during the first 30 min of acclimatization to the novel environment and during 120 min following the treatment. The animals were acclimated to a 12 h cycle light/dark phase with the light on at 7:00 am before the experiments. Tests were performed during the light phase of the cycle between 8:00 am to 3:00 pm. AMPH or other drugs was prepared freshly before each experiment by dissolving in saline (NaCl 0.9%) and administered via intra peritoneal in a total volume of 10 ml/kg at the indicated doses."}, "mice [1]": {"system": "mice", "conditions": "previously described; cited from earlier work"}, "[2]": {"system": "PKCI/HINT1 WT and KO mice", "assay": "Tail suspension test, effect of haloperidol", "type": "in vivo", "from_the_text": "In order to confirm the results of the forced swim test while removing any bias introduced by the animal's swimming or learning capacity, we used the tail suspension test. This test assesses depression trait using coping behavior in a stressful situation (Cryan J F et al., 2005, Neruosc. Behav. Rev. 29, 571-625). The animals are exposed to a […] stress of being hung in an uncontrollable fashion by the tail for six minutes. Immobility, considered as a depression trait when the animal gives up any escape, is reported in seconds. Data are expressed as mean+/−SEM and analyzed using a 2 way ANOVA (age×genotype) followed by Bonferroni when p<0.05.\nHaloperidol 0.05 mg/kg and 0.1 mg/kg were administered via intra-peritoneal (10 ml/kg) 30 minutes before the test. Data are expressed as mean+/−SEM and analyzed using a 2 way ANOVA (treatment×genotype) followed by Bonferroni when p<0.05."}, "PKCI KO mice": {"system": "PKCI KO mice", "assay": "Conditional place preference test", "type": "in vivo", "conditions": "preliminary data", "from_the_text": "Finally, we are looking at the involvement of PKCI in the rewarding function in PKCI KO mice. In this study, we are testing the response of the KO mice to the reward action of amphetamine and cocaine by using conditional place preference test."}, "[3]": {"system": "extracellular DA in nucleus accumbens and caudate-putamen of mPKCI WT and KO mice", "assay": "In vivo microdialysis, amphetamine-evoked extracellular DA", "conditions": "2.5 mg/kg ip, conventional microdialysis, FIG. 4", "procedure": "PKCI^−/− mice and their WT controls were anesthetized and implanted unilaterally with a microdialysis guide cannula (CMA/11, CMA microdialysis) in the nucleus accumbens (AP: +1.5, L: −0.8, V: −3.8 from bregma) or the dorsal striatum (AP: +0.4, L−2.1, V−2.2 from bregma) using standard stereotaxic techniques, and allowed to recover for 5 days prior to the microdialysis experiment as described. […]\nFor no net flux experiments, five different concentrations of DA (0, 5, 10, 20 and 40 nM) in aCSF were perfused in random order through the dialysis probe. […] The DA content was determined by HPLC coupled to electrochemical detection with an external standard. All the samples were analyzed within 48 hours of collection. […] No net flux data was analyzed as described (Chefer et al 2006, supra). The net flux of DA through the probe (DAin-DAout) was calculated and plotted against the concentration of DA perfused (DAin). The following parameters were calculated from the resulting linear function. […] In the conventional microdialysis experiments investigating the effects of amphetamine, the average of the three baseline samples was calculated, and all the DA concentrations were expressed as % of baseline. […]"}, "mice [4]": {"system": "mice", "conditions": "10 mg/kg dose; cited from earlier work"}}, "note": "“Also recorded” adds a separate entry of the source.", "data": [{"smiles": "CN1CCc2cccc3c2[C@H]1Cc1ccc(O)c(O)c1-3", "note": "[apomorphine]", "values": [{"measurement": "locomotor activity (total ambulation and stereotyped behavior), KO compared with WT", "setting": "mPKCI WT and KO mice; apomorphine 10 mg/kg i.p., FIG. 5", "value": "significantly higher locomotor activity as compared with WT"}]}, {"smiles": "O=C(CCCN1CCC(O)(c2ccc(Cl)cc2)CC1)c1ccc(F)cc1", "note": "[Haloperidol]", "values": [{"measurement": "mice immobility in the tail suspension test", "setting": "mice [1]", "value": "increase mice immobility"}, {"measurement": "immobility compared with saline treatment", "setting": "[2]; 0.05 mg/kg and 0.1 mg/kg i.p. 30 minutes before the test, WT and KO, FIG. 8", "value": "increased immobility in both WT and KO animals"}, {"measurement": "increase in immobility in KO mice relative to WT level", "setting": "[2]; 0.1 mg/kg, 3 months and 15 months old", "value": "reaching the level attained by WT animals"}]}, {"smiles": "C[C@H](N)Cc1ccccc1", "note": "[amphetamine, D-amphetamine]", "values": [{"measurement": "effect on locomotion", "setting": "mPKCI WT and KO mice; AMPH 2.5 mg/kg i.p., 120 min after treatment, WT and KO mice, FIG. 2", "value": "increased locomotion in both WT and KO animals"}, {"measurement": "amphetamine-evoked locomotor response, PKCI KO compared with WT", "setting": "mPKCI WT and KO mice; AMPH 2.5 mg/kg i.p., KO vs WT", "value": "three times more"}, {"measurement": "increase in amphetamine-evoked activity in mPKCI KO mice, dose response", "setting": "mPKCI WT and KO mice; D-AMPH 1.25, 2.5 and 5 mg/kg i.p., FIG. 3", "value": "consistent across a range of amphetamine doses"}, {"measurement": "response of KO mice to reward action", "setting": "PKCI KO mice", "value": "higher response"}, {"measurement": "amphetamine-evoked DA response, WT vs KO", "setting": "[3]", "value": "No significant difference between WT and KO mice; also recorded: did not differ in WT and KO animals"}]}, {"smiles": "CN1CC[C@]23c4c5ccc(O)c4O[C@H]2[C@@H](O)C=C[C@H]3[C@H]1C5", "note": "[morphine]", "values": [{"measurement": "effect on locomotor activity", "setting": "mPKCI WT and KO mice; morphine 10 mg/kg i.p., 120 min after treatment, WT and KO mice, FIG. 2", "value": "did not promote increase in locomotor activity; also recorded: depressive locomotor effect on both wild type and knockout mice"}, {"measurement": "locomotion", "setting": "mice [4]", "value": "a decrease in locomotion was often observed"}]}]}
